Experimental findings from patent US11883524B2, “Cosmetic compositions” (MARY KAY INC., priority 2018, dated 2024) are described below.

The target of one assay is T1, MMP3 (Homo sapiens, UniProt P08254).
T1 construct: purchased BioMol International AK-400
The assay can be described thus: Inhibition of matrix metalloproteinase enzyme activity (MMP3) assay. In kind it is biochemical. From the text: Inhibition of Matrix Metalloproteinase Enzyme Activity (MMP3) Assay: MMPs are extracellular proteases that play a role in many normal and disease states by virtue of their broad substrate specificity. MMP3 substrates include collagens, fibronectins, and laminin; while MMP9 substrates include collagen VII, fibronectins and laminin. Using Colorimetric Drug Discovery kits from BioMol International for MMP3 (AK-400) and MMP-9 (AK-410), this assay was designed to measure protease activity of MMPs using a thiopeptide as a chromogenic substrate (Ac-PLG-[2-mercapto-4-methyl-pentanoyl]-LG-OC2H5)5,6. The MMP cleavage site peptide bond was replaced by a thioester bond in the thiopeptide. Hydrolysis of this bond by an MMP produced a sulfhydryl group, which reacted with DTNB [5,5′-dithiobis(2-nitrobenzoic acid), Ellman's reagent] to form 2-nitro-5-thiobenzoic acid, which was detected by its absorbance at 412 nm (ε=13,600 M-1 cm-1 at pH 6.0 and above 7). Tetrahexyldecyl ascorbate was assayed.

Assay [1] deals with procollagen peptide production by human epidermal fibroblasts. The assay can be described thus: Increase of collagen stimulation (procollagen peptide ELISA). In kind it is cell-based. Particulars: human adult epidermal fibroblasts, treated 3 days. From the text: Increase of Collagen Stimulation: Collagen is an extracellular matrix protein critical for skin structure. Increased synthesis of collagen helps improve skin firmness and elasticity. This bioassay was used to examine the effect of tetrahexyldecyl ascorbate, and/or Phyllanthus emblica fruit extract on the production of procollagen peptide (a precursor to collagen) by human epidermal fibroblasts. The endpoint of this assay was a spectrophotometric measurement that reflects the presence of procollagen peptide and cellular viability. The assay employed the quantitative sandwich enzyme immunoassay technique whereby a monoclonal antibody specific for procollagen peptide had been pre-coated onto a microplate. Standards and samples were pipetted into the wells and any procollagen peptide present was bound by the immobilized antibody. […] Following a wash to remove any unbound antibody-enzyme reagent, a substrate solution was added to the wells and color develops in proportion to the amount of procollagen peptide bound in the initial step using a microplate reader for detection at 450 nm. The color development was stopped and the intensity of the color was measured. […] Following incubation, cell culture medium was collected and the amount of procollagen peptide secretion quantified using a sandwich enzyme linked immuno-sorbant assay (ELISA) from Takara (#MK101).
A general note: In an ELISA, binding on a coated surface is turned into a signal by an enzyme label.

T1 sequence (P08254 100-272 limits assumed): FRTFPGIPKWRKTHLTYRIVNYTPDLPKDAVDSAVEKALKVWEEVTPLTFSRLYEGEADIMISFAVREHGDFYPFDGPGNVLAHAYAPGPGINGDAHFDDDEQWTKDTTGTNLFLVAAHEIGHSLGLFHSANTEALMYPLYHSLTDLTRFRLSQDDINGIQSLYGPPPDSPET

As to `CCCCCCCCC(CCCCCC)C(=O)OC[C@H](OC(=O)C(CCCCCC)CCCCCCCC)[C@H]1OC(=O)C(OC(=O)C(CCCCCC)CCCCCCCC)=C1OC(=O)C(CCCCCC)CCCCCCCC` (some centres unmarked) [Tetrahexyldecyl ascorbate], at MMP3, the “Inhibition of MMP3 activity” value is recorded as −38%. Moreover, in assay [1], the Increase of collagen entry is listed as “+50%”.
